Assay results published in the NIST ThermoML archive (doi:10.1021/acs.jced.5b01057).
± gives the expanded uncertainty stated by the source.

Test: mn = molality of the nth substance listed, in mol/kg
Details: for surface tension liquid-gas: Pendant drop shape; for electrical conductivity: 100 kPa, Liquid, Alternating current cell with electrodes

CCCCCCCCCCCC[NH2+]C1O[C@H](CO)[C@@H](O[C@@H]2O[C@H](CO)[C@H](O)[C@H](O)[C@H]2O)[C@H](O)[C@H]1O.CCCCCCCCCCCC[NH2+]C1O[C@H](CO)[C@@H](O[C@@H]2O[C@H](CO)[C@H](O)[C@H](O)[C@H]2O)[C@H](O)[C@H]1O.O=C([O-])CC(=O)[O-] (stereo partly drawn) [N-dodecyllactosylammonium propanedioate] + O
Details | electrical conductivity [S/m] | surface tension liquid-gas [mN/m]
298.15 K, m1 = 0.0005 | – | 68.12 ± 1.5
298.15 K, m1 = 0.001 | – | 61.14 ± 1.3
298.15 K, m1 = 0.0015 | – | 55.99 ± 1.2
298.15 K, m1 = 0.00159 | 0.00597 ± 0.00061 | –
298.15 K, m1 = 0.002 | – | 51.91 ± 1.1
298.15 K, m1 = 0.0025 | – | 47.5 ± 1
298.15 K, m1 = 0.003 | – | 44.9 ± 0.98
298.15 K, m1 = 0.00317 | 0.0115 ± 0.0012 | –
298.15 K, m1 = 0.004 | – | 40.37 ± 0.88
298.15 K, m1 = 0.00474 | 0.0168 ± 0.0017 | –
298.15 K, m1 = 0.005 | – | 35.39 ± 0.78
298.15 K, m1 = 0.00552 | 0.0194 ± 0.002 | –
298.15 K, m1 = 0.006 | – | 32.88 ± 0.73
298.15 K, m1 = 0.0063 | 0.0227 ± 0.0023 | –
298.15 K, m1 = 0.007 | – | 30.63 ± 0.68
298.15 K, m1 = 0.00707 | 0.0251 ± 0.0026 | –
298.15 K, m1 = 0.00784 | 0.0271 ± 0.0027 | –
298.15 K, m1 = 0.008 | – | 28.97 ± 0.64
298.15 K, m1 = 0.00861 | 0.0288 ± 0.0029 | –
323.15 K, m1 = 0.0004 | – | 65.73 ± 1.4
323.15 K, m1 = 0.0006 | – | 62.69 ± 1.4
323.15 K, m1 = 0.0008 | – | 59.26 ± 1.3
323.15 K, m1 = 0.001 | – | 56.85 ± 1.2
323.15 K, m1 = 0.0014 | – | 52.69 ± 1.1
323.15 K, m1 = 0.00159 | 0.00958 ± 0.00097 | –
323.15 K, m1 = 0.002 | – | 47.4 ± 1
323.15 K, m1 = 0.0024 | – | 44.7 ± 0.98
323.15 K, m1 = 0.003 | – | 41.32 ± 0.9
323.15 K, m1 = 0.00317 | 0.0164 ± 0.0017 | –
323.15 K, m1 = 0.004 | – | 37.19 ± 0.82
323.15 K, m1 = 0.00474 | 0.0257 ± 0.0026 | –
323.15 K, m1 = 0.005 | – | 33.3 ± 0.73
323.15 K, m1 = 0.006 | – | 30.53 ± 0.68
323.15 K, m1 = 0.0063 | 0.0329 ± 0.0033 | –
323.15 K, m1 = 0.007 | – | 28.43 ± 0.63
323.15 K, m1 = 0.00784 | 0.0387 ± 0.0039 | –
323.15 K, m1 = 0.008 | – | 26.79 ± 0.6

O [water] + CCCCCCCCCCCC[NH2+]C1O[C@H](CO)[C@@H](O[C@@H]2O[C@H](CO)[C@H](O)[C@H](O)[C@H]2O)[C@H](O)[C@H]1O.CCCCCCCCCCCC[NH2+]C1O[C@H](CO)[C@@H](O[C@@H]2O[C@H](CO)[C@H](O)[C@H](O)[C@H]2O)[C@H](O)[C@H]1O.O=C([O-])CCCCC(=O)[O-]
m2 = 0
Details | surface tension liquid-gas [mN/m]
298.15 K | 72.71 ± 1.6
323.15 K | 68.94 ± 1.5

O [water] + CCC(=O)[O-].CCCCCCCCCCCC[NH2+]C1O[C@H](CO)[C@@H](O[C@@H]2O[C@H](CO)[C@H](O)[C@H](O)[C@H]2O)[C@H](O)[C@H]1O
323.15 K, m2 = 0
Details | electrical conductivity [S/m] | surface tension liquid-gas [mN/m]
– | 0.0001534 ± 1e-07 | 68.57 ± 0.79

CCCCCCCCCCCC[NH2+]C1O[C@H](CO)[C@@H](O[C@@H]2O[C@H](CO)[C@H](O)[C@H](O)[C@H]2O)[C@H](O)[C@H]1O.CCCCCCCCCCCC[NH2+]C1O[C@H](CO)[C@@H](O[C@@H]2O[C@H](CO)[C@H](O)[C@H](O)[C@H]2O)[C@H](O)[C@H]1O.O=C([O-])CCCCC(=O)[O-] (stereo partly drawn) [N-dodecyllactosylammonium hexanedioate] + O
Details | electrical conductivity [S/m] | surface tension liquid-gas [mN/m]
298.15 K, m1 = 0.0005 | – | 65.42 ± 1.4
298.15 K, m1 = 0.001 | – | 57.54 ± 1.2
298.15 K, m1 = 0.0015 | – | 52.44 ± 1.1
298.15 K, m1 = 0.00159 | 0.00604 ± 0.00061 | –
298.15 K, m1 = 0.002 | – | 48.72 ± 1.1
298.15 K, m1 = 0.0025 | – | 46.11 ± 1
298.15 K, m1 = 0.003 | – | 43.65 ± 0.95
298.15 K, m1 = 0.00317 | 0.0113 ± 0.0011 | –
298.15 K, m1 = 0.00396 | 0.0137 ± 0.0014 | –
298.15 K, m1 = 0.004 | – | 39.6 ± 0.87
298.15 K, m1 = 0.00474 | 0.0159 ± 0.0016 | –
298.15 K, m1 = 0.005 | – | 36.39 ± 0.8
298.15 K, m1 = 0.00552 | 0.0182 ± 0.0019 | –
298.15 K, m1 = 0.006 | – | 34.24 ± 0.75
298.15 K, m1 = 0.0063 | 0.0212 ± 0.0022 | –
298.15 K, m1 = 0.007 | – | 33.1 ± 0.73
298.15 K, m1 = 0.00707 | 0.023 ± 0.0023 | –
323.15 K, m1 = 0.0004 | – | 62.97 ± 1.4
323.15 K, m1 = 0.0006 | – | 58.09 ± 1.3
323.15 K, m1 = 0.001 | – | 52.58 ± 1.1
323.15 K, m1 = 0.0014 | – | 47.88 ± 1
323.15 K, m1 = 0.00159 | 0.00898 ± 0.00091 | –
323.15 K, m1 = 0.002 | – | 43.86 ± 0.96
323.15 K, m1 = 0.0024 | – | 41.18 ± 0.9
323.15 K, m1 = 0.003 | – | 38.37 ± 0.84
323.15 K, m1 = 0.00317 | 0.0165 ± 0.0017 | –
323.15 K, m1 = 0.004 | – | 35.16 ± 0.77
323.15 K, m1 = 0.00474 | 0.0258 ± 0.0026 | –
323.15 K, m1 = 0.005 | – | 32.73 ± 0.72
323.15 K, m1 = 0.0063 | 0.0334 ± 0.0034 | –

O [water] + CCCCCCCCCCCC[NH2+]C1O[C@H](CO)[C@@H](O[C@@H]2O[C@H](CO)[C@H](O)[C@H](O)[C@H]2O)[C@H](O)[C@H]1O.CCCCCCCCCCCC[NH2+]C1O[C@H](CO)[C@@H](O[C@@H]2O[C@H](CO)[C@H](O)[C@H](O)[C@H]2O)[C@H](O)[C@H]1O.O=C([O-])CC(=O)[O-]
m2 = 0
Details | surface tension liquid-gas [mN/m]
298.15 K | 71.76 ± 1.6
323.15 K | 68.05 ± 1.5
